In patent US12039796B2, “Method for classifying cells” (Sartorius BioAnalytical Instruments, Inc., priority 2019, dated 2024):
Like-named read-outs stand apart in the source and are kept apart here.

Experiments:
HT1080 fibrosarcoma = HT1080 fibrosarcoma apoptosis time course, multiplexed NucLight Red (viability) and Caspase 3/7 Green (apoptosis) readouts with cell-by-cell analysis; format: cell-based
Experimental: Example implementations permit cell health to be tracked in sub-populations over time. […] Cell health was determined with multiplexed readouts of Incucyte® NucLight Red (nuclear viability marker) and non-perturbing Incucyte® Caspase 3/7 Green Reagent (apoptotic indicator). […] Values shown are the mean±SEM of 3 wells.
Cell health was determined with multiplexed readouts of Incucyte® NucLight Red (nuclear viability marker) and non-perturbing Incucyte® Caspase 3/7 Green Reagent (apoptotic indicator). […] Values shown are the mean±SEM of 3 wells.

A549 cells = experiment: A549 cell death concentration response, cells classed Dead or Live by Annexin V fluorescence or by label-free trained model; format: cell-based; conditions: Homo sapiens, A549, 72 h, 0.1-10 μM, FIG. 16C
Experimental: The classification methods described herein facilitate classification of cells with an accuracy that approximates the accuracy of fluorophore-based methods. This allows for accurate classification without the expense, complexity, or experimental confounding effects that may be associated with the use of fluorescent labels. In an experiment, A549 cells were treated with increasing concentrations of the cytotoxic compound camptothecin (0.1-10 μM) for 72 h in the presence of Annexin V reagent. The cells were classed as Dead or Live based on fluorescence Annexin response (live cells=low fluorescence, dead cells=high fluorescence). The metric-based methods described herein were used to train a model using label-free features of dead (10 μM, 72 h) and live (vehicle, 0-72 h) cells.

[1] = HT1080, after treatment, FIG. 6C

Structure (SMILES)	apoptosis (HT1080 fibrosarcoma; HT1080, after treatment, FIG. 6G)	cell counts (HT1080 fibrosarcoma; HT1080, after treatment, FIG. 6G (data not shown))	green fluorescence (late apoptosis) (HT1080 fibrosarcoma; HT1080, after 24 hours, FIG. 6C)	red and green fluorescence (early apoptosis) (HT1080 fibrosarcoma; [1])	red population (NucLight Red, viable cells) (HT1080 fibrosarcoma; [1])	EC50 (A549 cells; Annexin V fluorescence-based classification, read-out: Annexin V EC50 (% death)) [nM]	EC50 (A549 cells; label-free metric-based trained model classification, read-out: Label-free EC50 (% death)) [nM]
C[C@@H]1C[C@@H]([C@H](O)CC2CC(=O)NC(=O)C2)C(=O)[C@@H](C)C1 [CHX, cyclohexamide]	lack of apoptosis	decrease in cell counts					
CC[C@@]1(O)C(=O)OCc2c1cc1n(c2=O)Cc2cc3ccccc3nc2-1 [camptothecin]			increasing green fluorescence after 24 hours indicating late apoptosis	increasing red and green fluorescence indicating early apoptosis	decrease in the red population	660	530
